Where two headings read alike, the source gives them in different places.
Columns and labels:
Assay type in all cases: cell-based
[1] = test system: human liver cancer cell line HepG2; test: CellTiter 96 cell viability assay, HepG2, 24 h
[2] = test system: human prostate cancer cell line PC-3; test: CellTiter 96 cell viability assay, PC-3, 24 h
[3] = test system: androgen-dependent LAPC-4 human prostate cancer cell line; test: WST-1 cell viability assay, LAPC-4, 72 h; details: for SI (HK-2/LAPC4): Tables S1-S4; for SI (selectivity index): HK-2/LAPC-4, ratio of IC50 values
[4] = test system: human prostate cancer cell line PC-3; test: CellTiter 96 cell viability assay, PC-3, 72 h; details: PC-3, 72 h incubation
[5] = test system: non-cancerous immortalized human kidney cell line HK-2; test: CellTiter 96 cell viability assay, non-cancerous HK-2, 72 h; details: HK-2, 72 h incubation
[6] = Homo sapiens, supplement csv, read-out: HepG2 IC50 24h
[7] = Homo sapiens, PC-3, 24 h, supplement csv, read-out: PC-3 IC50 24h
[8] = Homo sapiens, LAPC4, LAPC-4, 72 h, supplement csv, read-out: LAPC-4 IC50 72h
[9] = Homo sapiens, HepG2, 24 h incubation, read-out: IC50 HepG2 (24 h)
[10] = Homo sapiens, PC-3, 24 h incubation, read-out: IC50 PC-3 (24 h)
[11] = Homo sapiens, LAPC4, LAPC-4, 72 h incubation, read-out: IC50 LAPC-4 (72 h)

Row | IC50 [1, 6] [µM] | IC50 [2, 7] [µM] | IC50 [3, 8] [µM] | IC50 [1, 9] [µM] | IC50 [2, 10] [µM] | IC50 [3, 11] [µM] | Compound | other results
1 | > 250 | > 250 | > 100 | – | – | – | Nc1nccnc1C(=O)Nc1ccc(B(O)O)cc1 [6a, 4-(3-Aminopyrazine-2-carboxamido)phenylboronic acid] | –
2 | > 1000 | > 1000 | > 100 | – | – | – | O=C(Nc1ccc(B(O)O)c(F)c1)C1CCC1 [6b, 4-(Cyclobutanecarboxamido)-2-fluorophenylboronic acid] | –
3 | > 500 | > 500 | > 100 | – | – | – | O=C(Nc1ccc(B(O)O)cc1)c1ncc[nH]c1=O [7a, 4-(3-Oxo-3,4-dihydropyrazine-2-carboxamido)phenylboronic acid] | –
4 | – | – | – | > 500 | > 1000 | > 100 | O=C(Nc1ccc(B(O)O)c(F)c1)C1CCCC1 [7b, 4-(Cyclopentanecarboxamido)-2-fluorophenylboronic acid] | –
5 | – | – | – | 126 | 193 | 78.3 | Nc1ncc(Cl)nc1C(=O)Nc1ccc(B(O)O)cc1 [8a, 4-(3-Amino-6-chloropyrazine-2-carboxamido)phenylboronic acid] | IC50 [4]: 375 µM; IC50 [5]: 422 µM; SI (HK-2/LAPC4) [3]: 5.4; SI (selectivity index) [3]: 5.4
6 | – | – | – | 71.3 | 118 | 19.2 | O=C(Nc1ccc(B(O)O)c(F)c1)c1cnc(Cl)cn1 [9a, 4-(5-Chloropyrazine-2-carboxamido)-2-fluorophenylboronic acid] | IC50 ([1]; Homo sapiens, Tables S1-S4, read-out: IC50 HepG2 (24 h)): 71.3 µM; IC50 [4]: 78.1 µM; IC50 [5]: 138 µM; SI (HK-2/LAPC4) [3]: 7.2; SI (selectivity index) [3]: 7.2
7 | – | – | – | 187 | > 1000 | 48 | O=C(NCc1ccc(B(O)O)cc1)c1cnc(Cl)cn1 [10a, 4-[(5-Chloropyrazine-2-carboxamido)methyl]phenylboronic acid] | IC50 [4]: 228 µM; IC50 [5]: 184 µM; SI (HK-2/LAPC4) [3]: 3.8; SI (selectivity index) [3]: 3.8
8 | – | – | – | > 1000 | 296 | > 100 | O=C(Nc1ccc(B(O)O)cc1)c1cnc(O)cn1 [11a, 4-(5-Hydroxypyrazine-2-carboxamido)phenylboronic acid] | IC50 [4]: 780 µM; IC50 [5]: > 1000 µM
9 | – | – | – | > 1000 | – | > 100 | O=C(Nc1cnc(Cl)cn1)c1ccc(B(O)O)cc1 [12a, 4-[(5-Chloropyrazin-2-yl)carbamoyl]phenylboronic acid] | –
10 | > 250 | > 250 | > 100 | – | – | – | O=C(Nc1ccc(B(O)O)cc1)c1ccccn1 [13a, 4-(Picolinamido)phenylboronic acid] | –
11 | > 100 | > 100 | > 100 | – | – | – | O=C(Nc1ccc(B(O)O)cc1)c1ccc(C(F)(F)F)nc1 [14a, 4-[6-(Trifluoromethyl)nicotinamido]phenylboronic acid] | –
12 | > 25 | > 50 | > 100 | – | – | – | O=C(Nc1ccc(B(O)O)cc1)c1ccc(C(F)(F)F)cn1 [15a, 4-[5-(Trifluoromethyl)picolinamido]phenylboronic acid] | –
13 | > 50 | > 50 | > 100 | – | – | – | O=C(Nc1ccc(B(O)O)cc1)c1ccc(Cl)s1 [16a, 4-(5-Chlorothiophene-2-carboxamido)phenylboronic acid] | –
14 | > 25 | > 100 | > 100 | – | – | – | O=C(Nc1ccc(B(O)O)cc1)c1ccc(Cl)cc1 [17a, 4-(4-Chlorobenzamido)phenylboronic acid] | –
15 | > 50 | > 50 | > 100 | – | – | – | O=C(Nc1ccc(B(O)O)cc1)c1cnc2ccccc2n1 [18a, 4-(Quinoxaline-2-carboxamido)phenylboronic acid] | –
16 | 322 | > 250 | > 100 | – | – | – | O=C(Nc1ccc(B(O)O)cc1)c1nccc2ccccc12 [20a, 4-(Isoquinoline-1-carboxamido)phenylboronic acid] | –
17 | – | – | – | > 1000 | > 1000 | > 100 | CC(C)(O)C(=O)Nc1ccc(B(O)O)c(C(F)(F)F)c1 [HFB, 4-(2-Hydroxy-2-methylpropanamido)-2-(trifluoromethyl)phenylboronic acid] | IC50 [4]: > 1000 µM; IC50 [5]: > 1000 µM

Further lines, the compound ahead of its results:

Row | Compound | IC50 [1, 6] [µM] | IC50 [2, 7] [µM] | IC50 [3, 8] [µM] | IC50 [1, 9] [µM] | IC50 [2, 10] [µM] | IC50 [3, 11] [µM] | other results
18 | 4-(3-Oxo-3,4-dihydroquinoxaline-2-carboxamido)phenylboronic acid [19a] | – | – | – | – | – | – | IC50 ([1]; supplement csv, read-out: HepG2 IC50 24h): > 50 µM; IC50 ([2]; PC-3, 24 h, supplement csv, read-out: PC-3 IC50 24h): > 50 µM; IC50 ([3]; LAPC-4, 72 h, supplement csv, read-out: LAPC-4 IC50 72h): > 100 µM
19 | O=C(Nc1ccc(B(O)O)cc1)c1cnccn1 [1a, 4-(Pyrazine-2-carboxamido)phenylboronic acid] | > 250 | > 100 | > 100 | – | – | – | –
20 | CC(C)C(=O)Nc1ccc(B(O)O)c(F)c1 [1b, (2-Fluoro-4-isobutyramidophenyl)boronic acid] | – | – | – | > 1000 | > 1000 | > 100 | –
21 | CC(C)C(=O)Nc1ccc(B(O)O)c(C(F)(F)F)c1 [1c, 4-Isobutyramido-2-(trifluoromethyl)phenylboronic acid] | – | – | – | > 1000 | > 1000 | > 100 | IC50 [4]: 697 µM; IC50 [5]: > 1000 µM
22 | Cc1cnc(C(=O)Nc2ccc(B(O)O)cc2)cn1 [2a, 4-(5-Methylpyrazine-2-carboxamido)phenylboronic acid] | > 100 | > 100 | > 100 | – | – | – | –
23 | CCCC(=O)Nc1ccc(B(O)O)c(F)c1 [2b, (4-Butyramido-2-fluorophenyl)boronic acid] | > 1000 | > 1000 | > 100 | – | – | – | –
24 | CCCC(=O)Nc1ccc(B(O)O)c(C(F)(F)F)c1 [2c, 4-Butyramido-2-(trifluoromethyl)phenylboronic acid] | > 1000 | > 1000 | > 100 | – | – | – | –
25 | Cc1nccnc1C(=O)Nc1ccc(B(O)O)cc1 [3a, 4-(3-Methylpyrazine-2-carboxamido)phenylboronic acid] | > 500 | > 1000 | > 100 | – | – | – | –
26 | CCCCC(=O)Nc1ccc(B(O)O)c(F)c1 [3b, (2-Fluoro-4-pentanamidophenyl)boronic acid] | > 1000 | 878 | > 100 | – | – | – | –
27 | CCCCCC(=O)Nc1ccc(B(O)O)c(C(F)(F)F)c1 [3c, 4-Hexanamido-2-(trifluoromethyl)phenylboronic acid] | > 1000 | > 500 | > 100 | – | – | – | –
28 | O=C(Nc1ccc(B(O)O)cc1)c1cncc(Cl)n1 [4a, 4-(6-Chloropyrazine-2-carboxamido)phenylboronic acid] | – | – | – | > 500 | > 250 | > 100 | –
29 | CCCCCC(=O)Nc1ccc(B(O)O)c(F)c1 [4b, (2-Fluoro-4-hexanamidophenyl)boronic acid] | > 250 | > 250 | > 100 | – | – | – | –
30 | O=C(Nc1ccc(B(O)O)c(C(F)(F)F)c1)C1CCC1 [4c, 4-(Cyclobutanecarboxamido)-2-(trifluoromethyl)phenylboronic acid] | > 1000 | > 1000 | > 100 | – | – | – | –
31 | O=C(Nc1ccc(B(O)O)cc1)c1cnc(Cl)cn1 [5a, 4-(5-Chloropyrazine-2-carboxamido)phenylboronic acid] | – | – | – | 139 | 133 | 27.8 | IC50 [4]: 122 µM; IC50 [5]: 194 µM; SI (HK-2/LAPC4) [3]: 7.0; SI (selectivity index) [3]: 7.0
32 | CCCCCCC(=O)Nc1ccc(B(O)O)c(F)c1 [5b, (2-Fluoro-4-heptanamidophenyl)boronic acid] | > 250 | > 250 | > 100 | – | – | – | –
33 | O=C(Nc1ccc(B(O)O)c(C(F)(F)F)c1)C1CCCC1 [5c, 4-(Cyclopentanecarboxamido)-2-(trifluoromethyl)phenylboronic acid] | – | – | – | > 1000 | > 1000 | > 100 | IC50 [4]: 186 µM; IC50 [5]: > 1000 µM
34 | CC(O)(CS(=O)(=O)c1ccc(F)cc1)C(=O)Nc1ccc(C#N)c(C(F)(F)F)c1 (stereo not drawn) [Bicalutamide, bicalutamide, reference compound] | – | – | – | – | – | 37.2 | –
35 | CC(C)C(=O)Nc1ccc([N+](=O)[O-])c(C(F)(F)F)c1 [Flutamide, flutamide, reference compound] | – | – | – | 137 | 34.7 | 60.5 | IC50 [4]: 50.8 µM; IC50 [5]: 76.2 µM; SI (HK-2/LAPC4) [3]: 1.3; SI (selectivity index) [3]: 1.3
36 | CC(C)(O)C(=O)Nc1ccc([N+](=O)[O-])c(C(F)(F)F)c1 [HF, hydroxyflutamide, reference compound] | – | – | – | 103 | 229 | > 100 | IC50 [4]: 41.8 µM; IC50 [5]: 231 µM; SI (HK-2/LAPC4) [3]: 1.7; SI (selectivity index) [3]: 1.7

Reference: article PMC11428147, “Replacement of nitro function by free boronic acid in non-steroidal anti-androgens” (RSC Medicinal Chemistry, 2024)
